Results reported in patent US20090227612A1, “Aminopyrimidine Derivatives Inhibiting Protein Kinase Activity, Method For The Preparation Thereof And Pharmaceutical Composition Containing Same” (priority 2005, published 2009).
Read-outs that look alike come from different tables or passages of the source.

Legend:
[1] = test system: human colon carcinoma cell line, HCT116; test: Cancer cell proliferation, SRB assay; format: cell-based; settings: HCT116, 48 hours, concentration inhibiting cancer cell proliferation by 50%
Procedure: (§1) In order to examine the suppressive effect of the inventive aminopyrimidine derivatives on the proliferation of cancer cells through inhibiting the protein kinase activity, a test was performed as follows by employing human colon carcinoma cell line, HCT116 (Korean Cell Line Bank, KCLB10247) and human fetal cell line, MRC-5 (Korean Cell Line Bank, KCLB10171).
(§2) HCT116 and MRC-5 cells were plated into the wells of a 96-well plate containing DMEM (Dulbecco's Modified Eagle Medium) medium at a concentration ranging from 1×10^3 to 3×10^3 cells/well, and cultured under conditions of 5% CO2 and 37° C. for 24 hours. Then, the test compounds of Examples 85 to 88, 97 to 99, 105 to 110 and 115 to 118, and a comparative compound, N-(4-(4-(5-methyl-1H-pyrrole-3-yl-amino)-6-(4-methylpiperazin-1-yl)-1,3,5-triazin-2-ylthio) cyclopropane carboxyamide were added thereto in an amount of 0.2, 1, 5, 25 and 100 μM, respectively. The control was not treated with any compound. The cells were cultured for 48 hours.
(§3) After removing the medium from each wells, the cells were washed about 3 times with phosphate-buffered saline (PBS, pH 7.4), followed by fixing with 50% TCA (trichloroacetic acid) refrigerant solution in an amount of 50 μl/well at 4° C. for 1 hour. The fixed cells were washed 5 times with distilled water and dried in the air, and stained with 50 μl/well of 1% acetic acid containing 0.4% SRB (sulforhodamine B) solution at room temperature for 1 hour. The stained cells were washed 5 times with 1% acetic acid and dried in the air, 150 μl/well of 10 mM Tris-HCl (pH 10.5) were added thereto, and the absorbance of each well was measured at 540 nm. The suppressive value of each compound for cell proliferation was calculated based on the absorbance of the control well, and the results are shown in Table 2. In Table 2, EC50 (μM) was determined as a concentration of the test compound required to inhibit cancer cell proliferation by 50% relative to the control, CC50 (μM) was determined as a concentration of the test compound required to inhibit normal cell proliferation by 50% relative to the control, and the therapeutic index was determined as the value of CC50(μM)/EC50(μM).

[2] = target: T1, Aurora A (Homo sapiens, UniProt O14965); test: Aurora A kinase activity assay (Kemptide substrate, Kinase-Glo residual ATP); format: biochemical; settings: recombinant Aurora A 10 nM, ATP 1 μM, Kemptide 100 μM, 30° C. 1 hour
T1 construct: purchased Upstate
T1 sequence (O14965 1-403): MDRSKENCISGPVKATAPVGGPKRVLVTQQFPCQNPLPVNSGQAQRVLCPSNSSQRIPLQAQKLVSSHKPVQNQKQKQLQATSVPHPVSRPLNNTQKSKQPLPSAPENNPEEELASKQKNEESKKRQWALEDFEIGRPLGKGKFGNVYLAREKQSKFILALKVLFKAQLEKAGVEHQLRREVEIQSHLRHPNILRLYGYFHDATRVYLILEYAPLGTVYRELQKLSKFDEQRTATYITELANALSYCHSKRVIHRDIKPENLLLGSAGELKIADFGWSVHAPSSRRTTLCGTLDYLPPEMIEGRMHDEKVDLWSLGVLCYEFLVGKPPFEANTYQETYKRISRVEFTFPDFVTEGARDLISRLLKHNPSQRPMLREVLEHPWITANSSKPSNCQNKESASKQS
Procedure: Further, the test compounds and comparative compound were successively diluted with dimethyl sulfoxide (DMSO) from an initial concentration of 12.5 mM to obtain test solutions and DMSO was used as a control solution. Less than 5% of each test solution or control solution was added to a reaction solution containing 20 mM HEPES (pH 7.5), 5 mM MgCl2, 0.5 mM EGTA, 200 mM KCl, 1 mM DTT and 0.05% triton X-100, and 100 μM of Kemptide peptide (PEPTRON), which is a substrate of aurora kinase, 1 μM of ATP and 10 nM of Aurora A (Upstate), which is a recombinant aurora kinase, were added thereto, followed by reacting each mixture at 30° C. for 1 hour. 25 μl of each reacted solution was mixed with 25 μl of Kinase-Glo™ (promega), and reacted at room temperature for 10 minutes, and the amount of residual ATP therein was measured using Fusion a-FP (Packard). Enzymic activity in each reacted solution was analyzed based on the measured value, and IC50 (μM) was determined as a concentration of the test compound required to inhibit the kinase activity by 50% relatively to the control solution, and the results are shown in Table 2.

[3] = Normal cell proliferation, SRB assay; format: cell-based, human; settings: human, CC50(μM)
Procedure: as §1, §2, §3

[4] = test system: human fetal cell line, MRC-5; test: Normal cell proliferation, SRB assay; format: cell-based
Procedure: as §1, §2, §3

Molecule	EC50 ([1]; Homo sapiens, HCT-116, 48 h)	IC50 [2]	EC50 [1]	CC50 at 48 h [3]	CC50 ([4]; human, 48 h)	CC50 [4]	CC50 ([4]; MRC-5, 48 hours, concentration inhibiting normal cell proliferation by 50%, read-out: CC50)
CC1(C)C2CCC1(C)C(NC(=O)c1ccnc(Nc3ccc(N4CCCCC4)cc3)n1)C2 (stereo not drawn) [Compound 85, 2-(4-(piperidine-1-yl)phenylamino)-N-(1,7,7-trimethylbicyclo[2.2.1]heptane-2-yl)pyrimidine-4-carboxyamide]	1600 nM	33 nM	–	38 µM	–	–	–
CN(C)CCNc1ccc(Nc2nccc(C(=O)NC3CC4CCC3(C)C4(C)C)n2)cc1 (stereo not drawn) [Compound 86]	1200 nM	88 nM	–	> 100 µM	–	–	–
CC1(C)C2CCC1(C)C(NC(=O)c1ccnc(Nc3cccc(NCCCN4CCOCC4)c3)n1)C2 (stereo not drawn) [Compound 97, 2-(3-(3-morpholinopropylamino)phenylamino)-N-(1,7,7-trimethylbicyclo[2.2.1]hep-tan-2-yl)pyrimidine-4-carboxyamide]	3100 nM	50 nM	–	> 100 µM	–	–	–
CC1(C)C2CCC1(C)C(NC(=O)c1ccnc(Nc3cccc(NCCCN4CCOCC4)c3)n1)C2 (stereo not drawn) [Compound 98, 2-(3-(3-morpholinopropylamino)phenylamino)-N-(1,7,7-trimethylbicyclo[2.2.1]hep-tan-2-yl)pyrimidine-4-carboxyamide]	–	39 nM	3200 nM	–	52600 nM	–	–
COc1ccc(Nc2nccc(C(=O)NC3CC4CCC3(C)C4(C)C)n2)cc1OCCN1CCOCC1 (stereo not drawn) [Compound 99, 2-(4-methoxy-3-(2-morpholinoethoxy)phenyl-amino)-N-(1,7,7-trimethylbicyclo[2.2.1]hep-tan-2-yl)pyrimidine-4-carboxyamide]	2000 nM	23 nM	–	52 µM	–	–	–
CC(C)N1CCN(c2ccc(Nc3nccc(C(=O)NC4CC5CCC4(C)C5(C)C)n3)cc2)CC1 (stereo not drawn) [Compound 109, 2-(4-(4-isopropylpiperazin-1-yl)phenylamino)-N-(1,7,7-trimethylbicyclo[2.2.1]hep-tan-2-yl)pyrimidine-4-carboxyamide]	2800 nM	20 nM	–	23.5 µM	–	–	–
CCCN1CCN(c2ccc(Nc3nccc(C(=O)NC4CC5CCC4(C)C5(C)C)n3)cc2)CC1 (stereo not drawn) [Compound 110, 2-(4-(4-propylpiperazin-1-yl)phenylamino)-N-(1,7,7-trimethylbicyclo[2.2.1]hep-tan-2-yl)pyrimidine-4-carboxyamide]	1900 nM	20 nM	–	32 µM	–	–	–
CC(C)CN1CCN(c2ccc(Nc3nccc(C(=O)NC4CC5CCC4(C)C5(C)C)n3)cc2)CC1 (stereo not drawn) [Compound 115, 2-(4-(4-isobutylpiperazin-1-yl)phenylamino)-N-(1,7,7-trimethylbicyclo-[2.2.1]heptan-2-yl)pyrimidine-4-carboxyamide]	3100 nM	93 nM	–	100 µM	–	–	–
N-(4-(4-(5-methyl-1H-pyrrole-3-yl-amino)-6-(4-methylpiperazin-1-yl)-1,3,5-triazin-2-ylthio) cyclopropane carboxyamide [Comparative compound, reference compound]	–	19 nM	3000 nM	–	–	–	33000 nM

More lines, in order of falling IC50 [2], values ahead:

EC50 ([1]; Homo sapiens, HCT-116, 48 h)	IC50 [2]	EC50 [1]	Molecule	CC50 at 48 h [3]	CC50 ([4]; human, 48 h)	CC50 [4]	CC50 ([4]; MRC-5, 48 hours, concentration inhibiting normal cell proliferation by 50%, read-out: CC50)
2800 nM	19 nM	–	CC1(C)C2CCC1(C)C(NC(=O)c1ccnc(Nc3cccc(NCC#N)c3)n1)C2 (stereo not drawn) [Compound 118, 2-(3-(cianomethylamino)phenylami-no)-N-(1,7,7-trimethylbicyclo-[2.2.1]heptane-2-yl)pyrimidine-4-carboxyamide]	62.5 µM	–	–	–
1200 nM	18 nM	–	COc1ccc(Nc2nccc(C(=O)NC3CC4CCC3(C)C4(C)C)n2)cc1OCCN1CCCC1 (stereo not drawn) [Compound 107, 2-(4-methoxy-3-(2-(pyrrolidin-1-yl)ethoxy)phenylamino)-N-(1,7,7-trimethylbicyclo[2.2.1]hep-tan-2-yl)pyrimidine-4-carboxyamide]	46 µM	–	–	–
500 nM	17 nM	–	CCN1CCN(c2ccc(Nc3nccc(C(=O)NC4CC5CCC4(C)C5(C)C)n3)cc2)CC1 (stereo not drawn) [Compound 105, 2-(4-(4-ethylpiperazin-1-yl)phenylamino)-N-(1,7,7-trimethylbicyclo[2.2.1]hep-tan-2-yl)pyrimidine-4-carboxyamide]	> 100 µM	–	–	–
1700 nM	12 nM	–	CC1(C)C2CCC1(C)C(NC(=O)c1ccnc(Nc3ccc(N4CCN(CC#N)CC4)cc3)n1)C2 (stereo not drawn) [Compound 116, 2-(4-(4-(cianomethyl)piperazin-1-yl)phenylamino)-N-(1,7,7-trimethylbicyclo [2.2.1]heptan-2-yl)pyrimidine-4-carboxyamide]	26.6 µM	–	–	–
–	11 nM	900 nM	CCN(CC)CCOc1cc(Nc2nccc(C(=O)NC3CC4CCC3(C)C4(C)C)n2)ccc1OC (stereo not drawn) [Compound 106, 2-(3-(2-(diethylamino)ethoxy)-4-methoxyphenylamino)-N-(1,7,7-trimethylbicyclo[2.2.1]hep-tan-2-yl)pyrimidine-4-carboxyamide]	–	–	33000 nM	–
800 nM	10 nM	–	CC1(C)C2CCC1(C)C(NC(=O)c1ccnc(Nc3ccc(NCCN4CCCC4)cc3)n1)C2 (stereo not drawn) [Compound 88, 2-(4-(2-(pyrrolidine-1-yl)ethylamino)phenyl-amino)-N-(1,7,7-trimethylbicyclo[2.2.1]heptane-2-yl)pyrimidine-carboxamide]	24.5 µM	–	–	–
1900 nM	10 nM	–	CC1(C)C2CCC1(C)C(NC(=O)c1ccnc(Nc3ccc(N4CCN(CCO)CC4)cc3)n1)C2 (stereo not drawn) [Compound 108, 2-(4-(4-(2-hydroxyethyl)piperazin-1-yl)phenylamino)-N-(1,7,7-trimethylbicyclo[2.2.1]hep-tan-2-yl)pyrimidine-4-carboxyamide]	56 µM	–	–	–
